The values that follow come from PubChem BioAssay (NCI).

Common to all, as to experiment: growth of human tumour cells (NCI), 48 h
Test [1] concerns HOP-92 NSCLC.
Test [2] relates to KM20L2 colon.
In test [3] the test system is DMS 273 small cell lung.
Test [4] concerns M19-MEL melanoma.
The subject of test [5] is LXFL 529 NSCLC.
The subject of test [6] is OVCAR-4 ovarian.
The test system of test [7] is CAKI-1 renal.
For test [8], the system named is A498 renal.
For test [9], the system named is DLD-1 colon.
Test [10] has as its system SNB-78 CNS.
Test [11] has as its system DMS 114 small cell lung.
Test [12] concerns BT-549 breast.
The subject of test [13] is PC-3 prostate.

Several values for one entry are separate records, joined by “and”; a condition that tells them apart may be missing. Equal entries are not always repeated.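 In this assay, cells in 96-well plates receive the compound at five concentrations for 48 hours. Endpoints are linearly interpolated between the surrounding concentrations. GI50 is the concentration that inhibits growth by half. The concentration for full growth arrest is given as TGI.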

Turning to `COc1cc2c(c(OC)c1)C(=O)C(=O)C(CC1(C)OCCCO1)=C2`, the TGI in test [1] is 4.41 µM; in test [2] it was 31.9 µM; in [3], 28.4 µM; in test [4] it was 6.18 µM; in test [5] it was 14.6 µM; in [6], 18.9 µM. Also, the TGI worked out at 13.1 µM in test [7]; 31.3 µM in test [8]; 8.45 µM in test [9]; 26 µM in [10]; 12.7 µM in [11].

As for `CCOC(=O)C1=C(C)C2C3C(=O)OC(=O)C3C1(C)C1C(=O)OC(=O)C21` (centres undefined), the TGI in test [1], in test [2], in test [3], in test [4], in test [5] and in test [6] was over 100 µM each time. Further, the TGI in test [8], in test [9], in test [10] and in [11] was over 100 µM each time.

For `NCCNc1ccc(NCCN)c2c1C(=O)c1c(O)ccc(O)c1C2=O`, the GI50 was 0.229 µM in [1]; 0.251 µM in [2]; 0.104 µM in test [4]; 0.105 µM in test [5]; 0.0625 µM in [6]; 0.069 µM in test [9]. Besides, the TGI in [1] is 0.0789 µM; in test [2], 1.5 µM and 1.53 µM; in test [12], 2.18 µM; in [4], 1.04 µM and 1.17 µM; in test [13] it was 1.64 µM; in test [5] it was 0.905 µM and 1.03 µM. Further, the TGI is 1.09 µM and 0.715 µM in test [6]; 0.879 µM and 0.123 µM in test [7]; 0.37 µM in test [8]; 1.05 µM and 0.974 µM in test [9].

In the case of `COc1ccccc1NC(=O)C(=O)C(c1cnc2ccc([N+](=O)[O-])cc2n1)[N+](=O)[O-]` (centres undefined), the TGI in [1], in [2], in test [3], in [4], in test [5] and in test [6] was over 100 µM throughout. Moreover, the TGI in test [7] is over 100 µM; in [8], over 100 µM; in [9] it was over 100 µM; in test [10], over 100 µM; in test [11], 66.4 µM.

Consider `O=C(O)C1Cc2[nH]c3ccccc3c2C2CCCC12` (centres undefined), for which the TGI in test [1], in [2], in [3], in [4], in test [5] and in [6] was over 100 µM in each case. The TGI in [7], in [8], in test [9], in [10] and in test [11] was over 100 µM each time.

As for `COc1cc(Cn2c3ccccc3c3cc(C)cc(OC)c32)cc2c1[nH]c1ccccc12`, the GI50 in test [1] is 5.39 µM; in test [2] it was 15.4 µM; in test [3] it was 15.2 µM; in [5], 17 µM. The TGI in test [1], in test [2], in test [3], in test [4], in test [5] and in test [9] was over 25 µM each time. The TGI in test [10] and in test [11] was over 25 µM in each case.

Take `Nc1n[nH]c(N)n1`: the TGI in test [1] was 9580 µM; in [2], over 10000 µM; in [3] it was 6450 µM; in [12] it was over 10000 µM; in test [4], over 10000 µM; in test [13], over 10000 µM. In addition, the TGI in test [6] was over 10000 µM; in test [7], 8860 µM; in test [8] it was over 10000 µM; in test [9], over 10000 µM; in test [10] it was over 8560 µM; in test [11], 6880 µM.

Regarding `Cc1cc(N(CCC#N)CCC#N)ccc1/C=C(\N=[N+]=[N-])C(=O)NC(=O)COc1ccccc1`, the TGI in test [1], in test [2], in test [3], in [5], in test [6] and in test [7] was over 100 µM throughout. For the same molecule, the TGI in test [8], in test [9], in [10] and in [11] was over 100 µM each time.

Take `CCOC(=O)C(C(=O)OCC)S(C)(=O)=O`: the TGI in test [1], in [2], in test [3], in [4], in test [6] and in test [8] was over 100 µM throughout. Besides, the TGI in [9] and in test [11] was over 100 µM each time.

Take `CC(C)(C)c1cc(OCc2n[nH]c(=S)n2N)c(Cl)cc1OCc1n[nH]c(=S)n1N`: the TGI in [1], in [12], in test [13], in test [6], in test [7] and in test [8] was over 100 µM throughout.

As to `CC(C)(CN1CCCCC1)C(=O)CC(SCCS(=O)(=O)O)c1ccccc1` (centres undefined), the TGI turned out to be 25.3 µM in test [1]; 49.4 µM in test [12]; 77.1 µM in test [13]; 49.4 µM in test [6]; 34.9 µM in test [7]; 32.1 µM in test [8].

Consider `O=C(Cn1c2ccc(Br)cc2c2nc3ccccc3nc21)N1CCOCC1`, for which the TGI was 83.3 µM in test [1]; over 100 µM in [12]; over 100 µM in test [13]; over 100 µM in test [6]; over 100 µM in [7]; over 100 µM in [8].

Turning to `COc1cc2cnc3c4cc(O)ccc4ccc3c2cc1OC`, the TGI in test [1], in test [2], in test [4], in test [5], in [6] and in test [7] was over 100 µM throughout. The TGI in test [9] was over 100 µM; in test [11] it was 39.4 µM.

For the molecule `CCOC(=O)C12CCC(c3c(C)cccc3C)(O1)C(C(=O)OC)=C2C(=O)OC` (centres undefined), the TGI in test [1] is over 10 µM; in test [12], over 10 µM; in test [13], over 10 µM; in test [6] it was over 10 µM; in [7] it was over 10 µM; in test [8] it was 7 µM.

As to `CCOC(=O)c1cc(C2CCN(Cc3ccccc3)C2=O)c(C(=O)/C=C(/C)N)[nH]1` (centres undefined), the TGI in test [1] is 97.5 µM; in test [12], over 100 µM; in test [13], over 100 µM; in test [6] it was over 100 µM; in [7] it was over 100 µM; in test [8], over 100 µM.

Consider `CCOC(=O)CN1C(=O)c2c(NC(=O)C(=O)O)cccc2S1(=O)=O`, for which the TGI in test [1], in test [12], in test [13], in test [6], in [7] and in test [8] was over 100 µM in each case.

On to `CC(C)C1CCC(=O)CC1CCCCC1CC(=O)CC1O[Si](C)(C)C(C)(C)C` (centres undefined), for which the TGI in test [1] was determined as 13.1 µM; in test [12] it was 13.3 µM; in [13], 43.1 µM; in test [6] it was 29.3 µM; in test [7], 19.4 µM; in [8], 27.1 µM.

Regarding `O=S1(=O)OCCOS(=O)(=O)C1(Br)Br`, the TGI in [1], in test [3], in [4], in [5], in [6] and in [7] was over 100 µM throughout. The TGI in test [9], in test [10] and in test [11] was over 100 µM each time.

On to `CCOC(=O)c1c(Br)c(-c2ccc([N+](=O)[O-])cc2)c(Br)n1C`, for which the TGI in test [1], in test [12], in [13], in test [6], in [7] and in test [8] was over 10 µM in each case.

Turning to `C[N+]1(C)C/C(=C\C=C\c2ccccc2)C(=O)/C(=C/C=C/c2ccccc2)C1`, the TGI was 70.3 µM in test [1]; 33.1 µM in test [2]; 8.39 µM in test [12]; 31.7 µM in [4]; 98.7 µM in [13]; 11.6 µM in [5]. For the same molecule, the TGI was over 84.2 µM in test [6]; over 82.3 µM in [7]; over 94.9 µM in [8]; 45.5 µM in [9]; over 100 µM in test [10]; 10.9 µM in test [11].

Take `c1cc2cc(Cc3ccc4[nH]ccc4c3)ccc2[nH]1`: the TGI was determined as 34.9 µM in test [1]; 45.8 µM in test [12]; 30.1 µM in test [13]; 28.7 µM in test [6]; 33.5 µM in test [7]; 37.3 µM in test [8].

For the molecule `N#C/C(=C\c1ccccc1F)C(=O)c1ccccc1`, the TGI in test [1], in test [2], in test [3], in [4], in test [5] and in test [6] was over 100 µM each time. For the same molecule, the TGI in test [7], in [8], in [10] and in [11] was over 100 µM in each case.

Consider `CN(C)C1(N(C)C)Oc2c(c(=O)n(C)c(=O)n2C)C(c2ccc(F)cc2)C1(F)F` (centres undefined), for which the TGI in test [1], in [12], in [13], in test [6], in [7] and in [8] was over 100 µM in each case.

With `COc1ccc(C(SCCO)(c2ccc(OC)cc2)c2ccc(OC)cc2)cc1`, the TGI was 28.8 µM in test [1]; 38.4 µM in test [12]; 42.3 µM in [13]; over 100 µM in [6]; over 100 µM in test [7]; 40.1 µM in [8].

Turning to `CC(C)NC(=O)OCc1c(COC(=O)NC(C)C)c(-c2cc[n+](COC(=O)Cc3ccccc3)cc2)n2c1CCC2`, the TGI in [1], in test [12], in [13], in test [6], in test [7] and in [8] was over 100 µM throughout.

With `Cc1ccc(C(CCO)CCO)nc1`, the TGI in test [1], in test [12], in [13], in test [6], in [7] and in test [8] was over 100 µM each time.

For the molecule `Cc1nc2c(n1Cc1ccc(F)cc1)C(=O)c1ccccc1C2=O`, the TGI in test [2] is over 100 µM; in [3], over 100 µM; in test [4], 13.5 µM; in [5], over 100 µM; in test [6], over 100 µM; in test [10], over 100 µM.

On to `O=C(OCC1CC(C2(O)CCCCC2)C(=O)O1)c1ccccc1` (centres undefined), for which the TGI in [1], in [12], in test [13], in [6], in test [7] and in test [8] was over 100 µM each time.

Turning to `O=C(NCCCN1CCN(CCCNC(=O)c2cc(-c3ccccc3)nc3ccccc23)CC1)c1cc(-c2ccccc2)nc2ccccc12`, the TGI in [1] was 28.5 µM; in [12], 51.1 µM; in [13], 26 µM; in [6], over 58.4 µM; in [7] it was 20.8 µM; in test [8], 73.6 µM.

As for `COc1cc2c(cc1OC)-c1cc3cc(OC)c(OC)cc3c(C)[n+]1CC2` (tested in a mixture with another compound), the TGI in test [1], in test [12], in test [13], in test [6], in test [7] and in test [8] was over 100 µM each time.

Consider `CC(=O)c1ccc(Nc2nc3ccccc3c3occc23)cc1`, for which the TGI in test [1] is 49.8 µM; in test [12] it was 64.4 µM; in [13], over 100 µM; in test [6] it was 8.78 µM; in test [7], 16.1 µM; in test [8] it was 12.3 µM.

With `CC1=NC(=O)CNN1C1=NNC2(C(=O)N1)c1ccccc1-c1ccccc12`, the TGI in test [1], in test [12], in test [13], in test [6], in test [7] and in [8] was over 100 µM throughout.
